Test results as given in US9776990B2, “Isoindolone derivatives” (AbbVie Inc., priority 2012, dated 2017).
Marks after values point to notes of the source that are not given here.

Columns and labels:
[1] = system: EJ-1; assay: Proliferation panel assay, EJ-1; type: cell-based; conditions: EJ1, 120 h; Bladder, EJ-1, 5 days; read-out: Cellular Proliferation EC50
Experimental: (§1) The impact of compounds of the Examples on cancer cell proliferation was determined using the breast cancer cell line MX-1 (ATCC) in a 3-day proliferation assay. MX-1 cells were maintained in RPMI supplemented with 10% FBS at 37 C.° and an atmosphere of 5% CO2. For compound testing, MX-1 cells were plated in 96-well black bottom plates at a density of 5000 cells/well in 90 μl of culture media and incubated at 37° overnight to allow cell adhesion and spreading. Compound dilution series were prepared in DMSO via a 3-fold serial dilution from 3 mM to 0.1 μM. […]
(§2) Luminescence readings from the Cell Titer Glo assay were normalized to the DMSO treated cells and analyzed using the GraphPad Prism software with sigmoidal curve fitting to obtain EC50s. The minimum significant ratio (MSR) was determined to evaluate assay reproducibility (Eastwood et al., (2006) J Biomol Screen, 11: 253-261). The overall MSR was determined to be 2.1 and a moving MSR (last six run MSR overtime) has been <2.
(§3) The compound of Example 40 was tested for its impact on proliferation of a panel of cancer cell line types (with specific cell lines tested) as set out in (Table 2). […] Cell proliferation data were analyzed as described above in the MX-1 proliferation assay to obtain the EC50 for the compounds reported in Table 2.

[2] = system: MDAMB453; assay: Proliferation panel assay, MDAMB453; type: cell-based; conditions: Homo sapiens, MDA-MB-453, 120 h; Breast, MDAMB453, 5 days; read-out: Cellular Proliferation EC50
Experimental: as §1, §2, §3

[3] = system: GEO; assay: Proliferation panel assay, GEO; type: cell-based; conditions: 120 h, Colon, 5 days, read-out: Cellular Proliferation EC50
Experimental: as §1, §2, §3

[4] = system: NCI-H929; assay: Proliferation panel assay, NCI-H929; type: cell-based; conditions: Homo sapiens, 120 h; Multiple Myeloma, NCI-H929, 5 days; read-out: Cellular Proliferation EC50
Experimental: as §1, §2, §3

[5] = system: Ly18; assay: Proliferation panel assay, Ly18; type: cell-based; conditions: 120 h; NHL, Ly18, 5 days; read-out: Cellular Proliferation EC50
Experimental: as §1, §2, §3

[6] = system: H460; assay: Proliferation panel assay, H460; type: cell-based; conditions: Homo sapiens, NCI-H460, 120 h; NSCLC, H460, 5 days; read-out: Cellular Proliferation EC50
Experimental: as §1, §2, §3

[7] = system: SK-LMS-1; assay: Proliferation panel assay, SK-LMS-1; type: cell-based; conditions: Homo sapiens, 120 h; Sarcoma, SK-LMS-1, 5 days; read-out: Cellular Proliferation EC50
Experimental: as §1, §2, §3

[8] = system: MX-1 human breast cancer xenograft; assay: Xenograft tumor growth inhibition assay, MX-1; type: in vivo, mice; conditions: MX-1 xenograft; for % TGI (tumor growth inhibition): QDx14, based on day 38; for % TGD (tumor growth delay): QDx14, endpoint 1000 mm^3
Experimental: The effect of the compound of Example 40 to inhibit the growth of Ramos, OPM-2, MX-1, MV4-11, and HT1080 xenograft tumors was evaluated. Briefly, 0.5×10^6 human cancer cells (HT1080), 1×10^6 human cancer cells (Ramos), 5×10^6 human cancer cells (OPM-2, MV4-11) or 1:10 tumor brie (MX-1) (in S-MEM (MEM, Suspension, no Calcium, no Glutamine)) (Life Technologies Corporation) were inoculated subcutaneously into the right hind flank of female SCID or SCID-beige (MV4-11, HT1080) mice (Charles Rivers Labs) on study day 0. Compound was formulated in 2% EtOH, 5% Tween-80, 20% PEG-400, 73% HPMC (Ramos, OPM-2 and MX-1) or 5% DMSO, 5% EtOH, 30% PEG400, 60% Phosal 53 (MV4-11, HT1080). Administration of compound was initiated at the time of size match on day 8 (HT1080), day 17 (MX-1), or day 18 (Ramos, MV4-11, OPM-2). The tumors were measured by a pair of calipers twice a week starting at the time of size match and tumor volumes were calculated according to the formula V=L×W^2/2 (V: volume, mm^3; L: length, mm. W: width, m) Tumor volume was measured for the duration of the experiment until the mean tumor volume in each group reached an endpoint of >1000 mm^3.

Cc1[nH]c(-c2cc(NS(C)(=O)=O)ccc2Oc2ccccc2)c2c1C(=O)CCC2 [Example 40, N-[3-(3-methyl-4-oxo-4,5,6,7-tetrahydro-2H-isoindol-1-yl)-4-phenoxyphenyl]methanesulfonamide]
EC50 [1]: 594 nM
EC50 [2]: 220 nM
EC50 [3]: 380 nM
EC50 [4]: 41 nM
EC50 [5]: 370 nM
EC50 [6]: > 10000 nM
EC50 [7]: 176 nM
% TGI (tumor growth inhibition) ([8]; group 2, 100 mg/kg/day PO): 78*** %
% TGD (tumor growth delay) ([8]; group 2, 100 mg/kg/day PO): 29*** %
% TGI (tumor growth inhibition) ([8]; group 3, 30 mg/kg/day PO): 48*** %
% TGD (tumor growth delay) ([8]; group 3, 30 mg/kg/day PO): 22*** %
% TGI (tumor growth inhibition) ([8]; group 4, 10 mg/kg/day PO): 18%
% TGD (tumor growth delay) ([8]; group 4, 10 mg/kg/day PO): 17%
% TGI (tumor growth inhibition) ([8]; group 5, 100 mg/kg/day PO): 80*** %
% TGD (tumor growth delay) ([8]; group 5, 100 mg/kg/day PO): 28*** %
% TGI (tumor growth inhibition) ([8]; group 6, 20 mg/kg/day PO): 30* %
% TGD (tumor growth delay) ([8]; group 6, 20 mg/kg/day PO): 19* %
